Assay results from the kinase profiling compilation of Christmann-Franck et al. (2016).

How the values were obtained:
Conditions in all cases: compound 10.0 µM
SGK3 (human) = SGK3 (human) (UniProt Q96BR1)
ROCK2 (human) = ROCK2 (human) (UniProt O75116)
IRAK4 (human) = IRAK4 (human) (UniProt Q9NWZ3)
ROCK1 (human) = ROCK1 (human) (UniProt Q13464)
IRAK1 (human) = IRAK1 (human) (UniProt P51617)
DDR2 (human) = DDR2 (human) (UniProt Q16832)
AKT2 (human) = AKT2 (human) (UniProt P31751)
TAOK2 (human) = TAOK2 (human) (UniProt Q9UL54)
STK16 (human) = STK16 (human) (UniProt O75716)
Chain of STK16 (human) (O75716 whole entry, looked up): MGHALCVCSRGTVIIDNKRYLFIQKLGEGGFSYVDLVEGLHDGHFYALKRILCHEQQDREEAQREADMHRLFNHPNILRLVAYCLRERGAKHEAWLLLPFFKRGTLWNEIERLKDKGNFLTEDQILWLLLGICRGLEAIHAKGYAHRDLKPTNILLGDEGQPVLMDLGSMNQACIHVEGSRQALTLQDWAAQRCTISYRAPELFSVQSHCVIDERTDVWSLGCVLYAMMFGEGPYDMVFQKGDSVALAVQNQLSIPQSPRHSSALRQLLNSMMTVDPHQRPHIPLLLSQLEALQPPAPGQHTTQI

BLK (human) = BLK (human) (UniProt P51451)
MERTK (human) = MERTK (human) (UniProt Q12866)
AKT1 (human) = AKT1 (human) (UniProt P31749)
TAOK1 (human) = TAOK1 (human) (UniProt Q7L7X3)
TYK2 JH1 JH2 (human) = TYK2 JH1 JH2 (human) (UniProt P29597)
PHKG1 (human) = PHKG1 (human) (UniProt Q16816)
STK11 (human) = STK11 (human) (UniProt Q15831)
MAP4K4 (human) = MAP4K4 (human) (UniProt O95819)
PRKCG (human) = PRKCG (human) (UniProt P05129)
DYRK1B (human) = DYRK1B (human) (UniProt Q9Y463)
Chain of DYRK1B (human) (Q9Y463 whole entry, looked up): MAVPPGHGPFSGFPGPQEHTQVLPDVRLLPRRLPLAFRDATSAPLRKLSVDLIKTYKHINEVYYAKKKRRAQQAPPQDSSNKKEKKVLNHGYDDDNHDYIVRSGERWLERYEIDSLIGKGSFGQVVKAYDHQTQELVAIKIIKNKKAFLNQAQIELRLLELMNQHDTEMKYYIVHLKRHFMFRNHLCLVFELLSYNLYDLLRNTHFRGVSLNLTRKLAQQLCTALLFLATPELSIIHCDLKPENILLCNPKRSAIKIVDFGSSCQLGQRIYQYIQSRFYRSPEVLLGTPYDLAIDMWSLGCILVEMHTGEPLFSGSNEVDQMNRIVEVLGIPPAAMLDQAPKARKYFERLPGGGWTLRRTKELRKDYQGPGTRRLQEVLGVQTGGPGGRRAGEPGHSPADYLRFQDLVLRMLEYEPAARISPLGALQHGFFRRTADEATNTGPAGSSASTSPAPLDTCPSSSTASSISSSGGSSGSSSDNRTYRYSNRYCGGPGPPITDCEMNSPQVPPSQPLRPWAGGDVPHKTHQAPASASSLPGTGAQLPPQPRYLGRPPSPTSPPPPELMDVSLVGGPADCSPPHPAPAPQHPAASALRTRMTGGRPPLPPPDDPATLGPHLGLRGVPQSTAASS

MYLK (human) = MYLK (human) (UniProt Q15746)
PRKX (human) = PRKX (human) (UniProt P51817)
Chain of PRKX (human) (P51817 whole entry, looked up): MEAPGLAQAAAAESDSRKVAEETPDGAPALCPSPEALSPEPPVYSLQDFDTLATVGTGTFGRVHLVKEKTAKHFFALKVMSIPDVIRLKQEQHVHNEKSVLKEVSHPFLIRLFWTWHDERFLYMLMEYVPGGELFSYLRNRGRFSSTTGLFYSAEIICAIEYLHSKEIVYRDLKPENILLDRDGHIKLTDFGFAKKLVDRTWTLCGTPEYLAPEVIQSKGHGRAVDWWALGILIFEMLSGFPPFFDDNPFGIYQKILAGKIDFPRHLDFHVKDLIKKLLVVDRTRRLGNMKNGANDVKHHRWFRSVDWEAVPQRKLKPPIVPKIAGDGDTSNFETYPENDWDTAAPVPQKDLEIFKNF

SLK (human) = SLK (human) (UniProt Q9H2G2)
MARK2 (human) = MARK2 (human) (UniProt Q7KZI7)
LYN (human) = LYN (human) (UniProt P07948)
TGFBR2 (human) = TGFBR2 (human) (UniProt P37173)
CAMK1 (human) = CAMK1 (human) (UniProt Q14012)
EPHA8 (human) = EPHA8 (human) (UniProt P29322)
Chain of EPHA8 (human) (P29322 whole entry, looked up): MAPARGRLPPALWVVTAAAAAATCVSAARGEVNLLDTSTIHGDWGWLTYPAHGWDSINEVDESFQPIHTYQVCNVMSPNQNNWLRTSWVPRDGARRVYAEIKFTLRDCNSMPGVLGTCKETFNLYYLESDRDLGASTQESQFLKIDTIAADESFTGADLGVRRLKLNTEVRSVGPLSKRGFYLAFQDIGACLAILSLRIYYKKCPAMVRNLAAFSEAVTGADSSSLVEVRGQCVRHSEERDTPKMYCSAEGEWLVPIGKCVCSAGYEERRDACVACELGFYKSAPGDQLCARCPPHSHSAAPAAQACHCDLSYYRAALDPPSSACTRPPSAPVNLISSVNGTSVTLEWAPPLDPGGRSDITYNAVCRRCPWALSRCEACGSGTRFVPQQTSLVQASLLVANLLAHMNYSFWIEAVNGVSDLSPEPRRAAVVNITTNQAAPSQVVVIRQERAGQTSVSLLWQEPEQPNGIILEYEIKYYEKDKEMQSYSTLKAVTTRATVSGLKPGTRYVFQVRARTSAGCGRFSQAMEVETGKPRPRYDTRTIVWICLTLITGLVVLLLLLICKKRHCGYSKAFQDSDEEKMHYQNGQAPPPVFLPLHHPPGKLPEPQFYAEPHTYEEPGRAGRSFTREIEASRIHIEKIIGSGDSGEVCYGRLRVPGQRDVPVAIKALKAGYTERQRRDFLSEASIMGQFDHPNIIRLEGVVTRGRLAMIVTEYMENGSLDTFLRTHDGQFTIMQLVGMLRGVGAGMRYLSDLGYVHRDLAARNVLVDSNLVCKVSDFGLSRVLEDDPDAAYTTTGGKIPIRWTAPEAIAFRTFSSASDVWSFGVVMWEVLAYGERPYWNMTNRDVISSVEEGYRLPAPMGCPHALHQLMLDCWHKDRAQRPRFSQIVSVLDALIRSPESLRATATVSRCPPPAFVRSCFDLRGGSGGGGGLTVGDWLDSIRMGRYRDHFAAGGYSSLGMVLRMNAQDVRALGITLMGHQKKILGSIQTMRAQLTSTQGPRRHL

TAOK3 (human) = TAOK3 (human) (UniProt Q9H2K8)
MELK (human) = MELK (human) (UniProt Q14680)
Chain of MELK (human) (Q14680 whole entry, looked up): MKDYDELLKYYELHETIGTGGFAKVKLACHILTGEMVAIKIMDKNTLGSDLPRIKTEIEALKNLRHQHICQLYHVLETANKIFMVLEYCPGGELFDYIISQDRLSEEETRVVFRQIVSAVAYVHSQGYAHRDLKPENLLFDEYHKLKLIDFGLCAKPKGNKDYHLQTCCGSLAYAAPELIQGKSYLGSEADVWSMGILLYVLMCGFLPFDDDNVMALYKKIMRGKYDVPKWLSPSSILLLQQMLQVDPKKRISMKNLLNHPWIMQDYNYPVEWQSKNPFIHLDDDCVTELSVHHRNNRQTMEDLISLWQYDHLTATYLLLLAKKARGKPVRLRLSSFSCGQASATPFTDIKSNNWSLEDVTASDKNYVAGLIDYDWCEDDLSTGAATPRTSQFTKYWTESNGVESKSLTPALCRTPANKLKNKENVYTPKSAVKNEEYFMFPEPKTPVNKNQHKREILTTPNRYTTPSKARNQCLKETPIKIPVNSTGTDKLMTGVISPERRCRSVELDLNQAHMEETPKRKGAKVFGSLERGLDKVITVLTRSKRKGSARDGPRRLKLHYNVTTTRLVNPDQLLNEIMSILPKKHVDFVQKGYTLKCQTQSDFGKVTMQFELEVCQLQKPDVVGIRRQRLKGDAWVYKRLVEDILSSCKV

PLK3 (human) = PLK3 (human) (UniProt Q9H4B4)
CSNK2A2 (human) = CSNK2A2 (human) (UniProt P19784)
SRPK3 (human) = SRPK3 (human) (UniProt Q9UPE1)
CLK2 (human) = CLK2 (human) (UniProt P49760)
SRMS (human) = SRMS (human) (UniProt Q9H3Y6)
JAK1 JH1 JH2 (human) = JAK1 JH1 JH2 (human) (UniProt P23458)
INSRR (human) = INSRR (human) (UniProt P14616)
MAP3K10 (human) = MAP3K10 (human) (UniProt Q02779)
TSSK2 (human) = TSSK2 (human) (UniProt Q96PF2)
RPS6KA6 KD1 KD2 (human) = RPS6KA6 KD1 KD2 (human) (UniProt Q9UK32)
PRKACG (human) = PRKACG (human) (UniProt P22612)
PKN2 (human) = PKN2 (human) (UniProt Q16513)
SIK2 (human) = SIK2 (human) (UniProt Q9H0K1)
Chain of SIK2 (human) (Q9H0K1 whole entry, looked up): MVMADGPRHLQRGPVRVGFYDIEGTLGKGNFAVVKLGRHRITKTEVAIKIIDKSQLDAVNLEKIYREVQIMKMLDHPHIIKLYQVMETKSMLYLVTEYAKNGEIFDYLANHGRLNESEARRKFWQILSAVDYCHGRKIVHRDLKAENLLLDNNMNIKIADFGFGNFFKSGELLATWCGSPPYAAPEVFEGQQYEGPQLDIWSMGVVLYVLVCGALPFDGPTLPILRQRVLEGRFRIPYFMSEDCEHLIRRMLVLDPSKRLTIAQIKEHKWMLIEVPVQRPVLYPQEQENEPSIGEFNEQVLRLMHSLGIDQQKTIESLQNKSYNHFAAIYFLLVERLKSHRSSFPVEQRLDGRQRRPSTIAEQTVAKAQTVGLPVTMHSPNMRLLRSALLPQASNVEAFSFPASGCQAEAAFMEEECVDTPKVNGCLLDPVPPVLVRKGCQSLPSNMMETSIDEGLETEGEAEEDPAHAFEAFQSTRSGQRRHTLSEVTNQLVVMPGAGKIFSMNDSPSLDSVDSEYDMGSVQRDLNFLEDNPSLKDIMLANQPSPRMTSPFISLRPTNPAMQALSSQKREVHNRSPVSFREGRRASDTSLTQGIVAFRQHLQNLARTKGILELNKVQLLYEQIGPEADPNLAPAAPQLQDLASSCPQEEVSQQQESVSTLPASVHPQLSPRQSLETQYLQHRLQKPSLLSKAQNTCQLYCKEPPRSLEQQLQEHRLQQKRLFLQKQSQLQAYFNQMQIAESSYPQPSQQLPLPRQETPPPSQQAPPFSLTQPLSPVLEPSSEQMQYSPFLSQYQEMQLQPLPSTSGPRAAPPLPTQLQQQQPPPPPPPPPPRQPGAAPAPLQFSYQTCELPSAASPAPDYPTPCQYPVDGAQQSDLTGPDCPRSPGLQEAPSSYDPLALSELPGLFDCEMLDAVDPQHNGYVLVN

STK10 (human) = STK10 (human) (UniProt O94804)
CSK (human) = CSK (human) (UniProt P41240)

Chain of IRAK4 (human) (Q9NWZ3 whole entry, looked up): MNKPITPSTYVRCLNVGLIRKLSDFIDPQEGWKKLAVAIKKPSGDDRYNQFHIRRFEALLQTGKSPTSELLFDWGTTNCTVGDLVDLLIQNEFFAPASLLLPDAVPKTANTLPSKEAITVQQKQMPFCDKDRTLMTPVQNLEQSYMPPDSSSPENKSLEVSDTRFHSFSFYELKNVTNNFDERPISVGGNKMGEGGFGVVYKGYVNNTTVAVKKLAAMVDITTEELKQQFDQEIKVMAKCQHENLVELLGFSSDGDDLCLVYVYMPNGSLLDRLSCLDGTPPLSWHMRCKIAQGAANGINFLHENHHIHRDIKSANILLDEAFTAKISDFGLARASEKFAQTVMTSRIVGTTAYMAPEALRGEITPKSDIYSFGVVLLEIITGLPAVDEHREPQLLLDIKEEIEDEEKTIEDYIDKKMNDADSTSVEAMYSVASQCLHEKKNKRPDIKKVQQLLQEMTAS

In the case of `CC[C@H](C)n1cc(C)c2c(C(=O)NCc3c(C)cc(C)[nH]c3=O)cc(-c3ccc(N4CCNCC4)nc3)cc21`, the residual activity (SGK3 (human)) was 105%, the residual activity (ROCK2 (human)) was 98.5% and the residual activity (IRAK4 (human)) was 107%. It also gave a residual activity (ROCK1 (human)) of 96%, a residual activity (IRAK1 (human)) of 97% and a residual activity (DDR2 (human)) of 102%. The residual activity (AKT2 (human)) was 93.5%, the residual activity (TAOK2 (human)) was 103% and the residual activity (STK16 (human)) was 102%. The residual activity (BLK (human)) was 81.5%, the residual activity (MERTK (human)) was 98.5% and the residual activity (AKT1 (human)) was 91%. For the same molecule, the residual activity (TAOK1 (human)) was 91.5%, the residual activity (TYK2 JH1 JH2 (human)) was 91.5% and the residual activity (PHKG1 (human)) was 98%. The residual activity (STK11 (human)) was 106%, the residual activity (MAP4K4 (human)) was 102% and the residual activity (PRKCG (human)) was 91.5%. For the same molecule, the residual activity (DYRK1B (human)) was 90.5%, the residual activity (MYLK (human)) was 96% and the residual activity (PRKX (human)) was 80.5%. It also gave a residual activity (SLK (human)) of 108%, a residual activity (MARK2 (human)) of 92.5% and a residual activity (LYN (human)) of 104%. The residual activity (TGFBR2 (human)) was 100%, the residual activity (CAMK1 (human)) was 54% and the residual activity (EPHA8 (human)) was 89%. It also gave a residual activity (TAOK3 (human)) of 101%, a residual activity (MELK (human)) of 79.5% and a residual activity (PLK3 (human)) of 106%. For the same molecule, the residual activity (CSNK2A2 (human)) was 76.5%, the residual activity (SRPK3 (human)) was 98% and the residual activity (CLK2 (human)) was 89.5%. The residual activity (SRMS (human)) was 93.5%, the residual activity (JAK1 JH1 JH2 (human)) was 97.5% and the residual activity (INSRR (human)) was 88%. It also gave a residual activity (MAP3K10 (human)) of 103%, a residual activity (TSSK2 (human)) of 93.5% and a residual activity (RPS6KA6 KD1 KD2 (human)) of 92%. The residual activity (PRKACG (human)) was 100%, the residual activity (PKN2 (human)) was 89.5% and the residual activity (SIK2 (human)) was 108%. It also gave a residual activity (STK10 (human)) of 90% and a residual activity (CSK (human)) of 89.5%.
